Test systems include NCI-H226; RXF 393; MDA-N; CAKI-1; NCI-H460; TK-10; UACC-257; SK-MEL-28; UO-31; HCT-15; OVCAR-8; LOX IMVI; SN12C; SK-MEL-2; Hs-578T; K562; COLO 205; Malme-3M.
Experiment in all cases: NCI anticancer screen, dose series, 48 h

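Test compounds were applied to cells in 96-well plates for 48 hours at 5 doses. Here, GI50 denotes the concentration required for 50% inhibition of growth.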 The source made the active and inactive calls. Cut-off read from the data, not from the text of the source: active = GI50 up to about 1.1 µM and inactive = higher.

As to `O=C(CCCN1CCC2(CC1)C(=O)NC(=O)N2c1ccccc1)c1ccc(F)cc1`, the GI50 with NCI-H226, with RXF 393, in the experiment with MDA-N, with CAKI-1, with NCI-H460 and in the experiment with TK-10 was > 100 µM (inactive) in each case. Besides, the GI50 in the experiment on UACC-257 is > 100 µM (inactive); with SK-MEL-28, > 100 µM (inactive); in the experiment on UO-31 it was > 100 µM (inactive); in the experiment on HCT-15, greater than 100 µM; with OVCAR-8, > 100 µM (inactive); with LOX IMVI, > 100 µM (inactive). Besides, the GI50 is > 100 µM (inactive) in the experiment on SN12C; > 100 µM (inactive) in the experiment on SK-MEL-2; > 100 µM (inactive) in the experiment on Hs-578T; > 10 µM (inactive) in the experiment on K562; > 100 µM (inactive) in the experiment with COLO 205; > 100 µM (inactive) with Malme-3M.
On to `O=C1N/C(=N/N=C/c2cccs2)N/C1=C\c1ccco1`, for which the GI50 with NCI-H226 is 21.3 µM (inactive); in the experiment with RXF 393, 90.6 µM (inactive); in the experiment on MDA-N it was 2.93 µM (inactive); in the experiment on CAKI-1, > 100 µM (inactive); with NCI-H460, 23.2 µM (inactive); in the experiment on TK-10, > 100 µM (inactive). Also, the GI50 in the experiment on UACC-257 is 55.7 µM (inactive); in the experiment on SK-MEL-28, 76.9 µM (inactive); in the experiment on UO-31, > 100 µM (inactive); in the experiment on HCT-15, greater than 100 µM; in the experiment on OVCAR-8, 37 µM (inactive); in the experiment with LOX IMVI, 21.6 µM (inactive). For the same compound, the GI50 with SN12C is 43.8 µM (inactive); in the experiment with SK-MEL-2 it was 7.29 µM (inactive); in the experiment on Hs-578T, 29.3 µM (inactive); in the experiment with K562, 37.4 µM (inactive); in the experiment with COLO 205, 35.5 µM (inactive); with Malme-3M it was 38.6 µM (inactive).
As for `O=C(N/N=C\c1cccc2ccccc12)Nc1ccc([N+](=O)[O-])cc1`, the GI50 with NCI-H226 was 23.3 µM (inactive); with RXF 393, 7.13 µM (inactive); in the experiment with MDA-N, 19.1 µM (inactive); in the experiment with CAKI-1, 42.1 µM (inactive); in the experiment on NCI-H460, 10.9 µM (inactive); in the experiment on TK-10 it was 4.94 µM (inactive). In addition, the GI50 was 25.1 µM (inactive) with UACC-257; 27.7 µM (inactive) in the experiment with SK-MEL-28; 12.8 µM (inactive) with UO-31; 13.9 µM in the experiment on HCT-15; 7.64 µM (inactive) with OVCAR-8; 21.6 µM (inactive) with LOX IMVI. Moreover, the GI50 with SN12C was 18.5 µM (inactive); with SK-MEL-2, 20 µM (inactive); in the experiment on Hs-578T it was 25.4 µM (inactive); with K562, 5.58 µM (inactive); in the experiment with COLO 205 it was 17.1 µM (inactive); in the experiment with Malme-3M, 14.2 µM (inactive).
`O=[N+]([O-])c1cc(-[n+]2cc([O-])on2)ccc1F`: the GI50 was 23.4 µM (inactive) in the experiment with NCI-H226; 14.1 µM (inactive) with RXF 393; 16.1 µM (inactive) with MDA-N; 2.11 µM (inactive) in the experiment with CAKI-1; 18.5 µM (inactive) with NCI-H460; 18.4 µM (inactive) with TK-10. Also, the GI50 in the experiment with UACC-257 was 16.8 µM (inactive); with SK-MEL-28, 15.4 µM (inactive); with UO-31, 3.58 µM (inactive); with HCT-15 it was 20.3 µM; in the experiment with OVCAR-8 it was 16.4 µM (inactive); with LOX IMVI it was 14.9 µM (inactive). Besides, the GI50 with SN12C is 16.7 µM (inactive); in the experiment with SK-MEL-2 it was 15.6 µM (inactive); with Hs-578T, 26.7 µM (inactive); with K562, 34.4 µM (inactive); with COLO 205, 17.7 µM (inactive); in the experiment on Malme-3M it was 14.7 µM (inactive).
For the compound `C=CC1(CC/C(=C\[N+](=O)[O-])c2ccc(OC)c(OC)c2)OCC(C)(C)CO1`, the GI50 in the experiment with NCI-H226 was 16.4 µM (inactive); in the experiment with RXF 393 it was 12.9 µM (inactive); in the experiment with MDA-N, 21.8 µM (inactive); with CAKI-1 it was 23.2 µM (inactive); in the experiment with NCI-H460, 18.2 µM (inactive); with TK-10 it was 17.5 µM (inactive). In addition, the GI50 in the experiment on UACC-257 is 10.2 µM (inactive); with SK-MEL-28 it was 19.8 µM (inactive); with UO-31, 15.1 µM (inactive); in the experiment with HCT-15 it was 12.7 µM; with OVCAR-8, 15.2 µM (inactive); in the experiment with LOX IMVI it was 12.8 µM (inactive). Moreover, the GI50 with SN12C is 21 µM (inactive); in the experiment on SK-MEL-2, 19.1 µM (inactive); in the experiment with Hs-578T, 24 µM (inactive); with K562 it was 6.61 µM (inactive); in the experiment on COLO 205, 18 µM (inactive); with Malme-3M it was 23.2 µM (inactive).
For the compound `CN(C)c1ccc(/C=C/C(=O)c2ccc(O)cc2)cc1`, the GI50 in the experiment with NCI-H226 is 56.4 µM (inactive); with RXF 393 it was 6.27 µM (inactive); with MDA-N, 0.935 µM (active); with CAKI-1, 12.9 µM (inactive); in the experiment on NCI-H460 it was 4.72 µM (inactive); with TK-10 it was 35.3 µM (inactive). The GI50 is 7.66 µM (inactive) with UACC-257; 4.88 µM (inactive) in the experiment with SK-MEL-28; 14.4 µM (inactive) in the experiment on UO-31; 2.94 µM with HCT-15; 7.29 µM (inactive) with OVCAR-8; 6.35 µM (inactive) in the experiment with LOX IMVI. The GI50 in the experiment on SN12C was 5.37 µM (inactive); with SK-MEL-2, 14 µM (inactive); in the experiment on Hs-578T, 17.4 µM (inactive); in the experiment on K562, 1.7 µM (inactive); in the experiment with COLO 205, 14 µM (inactive); in the experiment with Malme-3M, 8.45 µM (inactive).
As for `O=c1oc2ccc3ccccc3c2cc1-c1nc2ccccc2o1`, the GI50 was 22.5 µM (inactive) in the experiment on NCI-H226; 16.1 µM (inactive) with RXF 393; 23.3 µM (inactive) in the experiment with MDA-N; 17.1 µM (inactive) with CAKI-1; 27.5 µM (inactive) in the experiment on NCI-H460; > 52.1 µM (inactive) in the experiment with TK-10. In addition, the GI50 with UACC-257 was > 49.9 µM (inactive); in the experiment on SK-MEL-28, 22.6 µM (inactive); in the experiment on UO-31 it was 30.9 µM (inactive); in the experiment on HCT-15 it was 36.6 µM; in the experiment on OVCAR-8 it was 23.2 µM (inactive); in the experiment on LOX IMVI, 16.6 µM (inactive). For the same compound, the GI50 is 22.6 µM (inactive) in the experiment with SN12C; 20.6 µM (inactive) with SK-MEL-2; 21.4 µM (inactive) with Hs-578T; 58.3 µM (inactive) in the experiment on K562; 53.5 µM (inactive) in the experiment on COLO 205; 13.7 µM (inactive) with Malme-3M.
In the case of `c1ccc([C@@H]2N[C@@]3(CO[Si](c4ccccc4)(c4ccccc4)c4ccccc4)CC[C@H]4CN[C@@H]2[C@H]43)cc1`, the GI50 was 12.4 µM (inactive) in the experiment with NCI-H226; 4.3 µM (inactive) in the experiment on RXF 393; 3.58 µM (inactive) in the experiment on MDA-N; 12.4 µM (inactive) in the experiment on CAKI-1; 10.4 µM (inactive) in the experiment with NCI-H460; 16.7 µM (inactive) in the experiment with TK-10. For the same compound, the GI50 is 14.3 µM (inactive) in the experiment on UACC-257; 14.9 µM (inactive) with SK-MEL-28; 10.8 µM (inactive) with UO-31; 3.17 µM with HCT-15; 13.1 µM (inactive) in the experiment on OVCAR-8; 10.4 µM (inactive) with LOX IMVI. Further, the GI50 is 13.2 µM (inactive) in the experiment with SN12C; 17.9 µM (inactive) in the experiment with SK-MEL-2; 13.8 µM (inactive) with Hs-578T; 3.33 µM (inactive) in the experiment with K562; 1.68 µM (inactive) with COLO 205; 0.0598 µM (active) in the experiment with Malme-3M.
On to `COc1cc2c(cc1O)NC(=S)[C@@H]1CCCN1C2=O`, for which the GI50 in the experiment on NCI-H226, with RXF 393, in the experiment on MDA-N, in the experiment on CAKI-1, in the experiment with NCI-H460 and in the experiment on TK-10 was > 100 µM (inactive) throughout. For the same compound, the GI50 in the experiment with UACC-257 is > 100 µM (inactive); in the experiment on SK-MEL-28 it was > 100 µM (inactive); with UO-31, > 100 µM (inactive); in the experiment with HCT-15 it was greater than 100 µM; in the experiment with OVCAR-8 it was > 100 µM (inactive); in the experiment on LOX IMVI, > 100 µM (inactive). Moreover, the GI50 in the experiment with SN12C, in the experiment with SK-MEL-2, with Hs-578T, in the experiment on K562, with COLO 205 and in the experiment with Malme-3M was > 100 µM (inactive) each time.
As to `CN(CCNC(=O)c1cc(-c2ccccc2)nc2ccccc12)CCNC(=O)c1cc(-c2ccccc2)nc2ccccc12`, the GI50 in the experiment on NCI-H226 is 14.6 µM (inactive); in the experiment with RXF 393, 8.67 µM (inactive); in the experiment with MDA-N, 11.1 µM (inactive); with CAKI-1, > 100 µM (inactive); in the experiment on NCI-H460, 8.87 µM (inactive); in the experiment with TK-10, > 100 µM (inactive). Further, the GI50 with UACC-257 was 3.05 µM (inactive); in the experiment with SK-MEL-28, 2.19 µM (inactive); in the experiment with UO-31, 7.1 µM (inactive); with HCT-15 it was greater than 80.5 µM; with OVCAR-8, > 28.1 µM (inactive); in the experiment on LOX IMVI, 3.89 µM (inactive). For the same compound, the GI50 with SN12C is > 100 µM (inactive); with SK-MEL-2, 4.41 µM (inactive); in the experiment with Hs-578T it was 6.18 µM (inactive); with K562, 3.55 µM (inactive); with COLO 205, 2.22 µM (inactive); in the experiment with Malme-3M, 2.12 µM (inactive).
For `COC(=O)[C@]12CC[C@H]3CN(C(=O)OCc4ccccc4)[C@H]([C@H]31)[C@H](c1ccco1)N2S(=O)(=O)c1ccc(C)cc1`, the GI50 is 27.5 µM (inactive) in the experiment on NCI-H226; 18.2 µM (inactive) with RXF 393; 18.9 µM (inactive) in the experiment on MDA-N; 28.8 µM (inactive) with CAKI-1; 26.5 µM (inactive) in the experiment on NCI-H460; 33.2 µM (inactive) in the experiment on TK-10. Further, the GI50 in the experiment with UACC-257 is 20.3 µM (inactive); in the experiment with SK-MEL-28, 39.2 µM (inactive); in the experiment with UO-31, 20.9 µM (inactive); in the experiment with HCT-15 it was 15.4 µM; in the experiment on OVCAR-8, 28.9 µM (inactive); in the experiment with LOX IMVI, 16.3 µM (inactive). Also, the GI50 in the experiment with SN12C was 18.5 µM (inactive); with SK-MEL-2 it was 20.7 µM (inactive); with Hs-578T, 73.5 µM (inactive); with K562, 16.9 µM (inactive); with COLO 205, 19.8 µM (inactive); in the experiment with Malme-3M, 21.3 µM (inactive).

The values above are taken from ChEMBL document CHEMBL1201862, “PubChem BioAssay data set” (2004).
